Results from US20050250801A1, “Method of treating cancer with azaspirane compositions” (priority 2003, published 2005).
Like-named read-outs stand apart in the source and are kept apart here.

Key:
T84 cells = assay: Induction of apoptosis, DNA fragmentation analysis, T84; type: cell-based, human; details: 12 hours treatment
Experimental: (§1) T84, CaCo-2 and HUVEC cells, respectively, were grown in 100 mm dishes for 7-9 days, culture media for HUVEC was EGM-2 (Clonetics, BioWhitaker Co.), until they reached semi-confluency. Cell monolayers were then treated for 12 hours (CaCo-2 and T84) and 16 hours (HUVEC), respectively, at the indicated concentrations of N,N,-diethyl-8,8-dipropyl-2-azaspiro[4,5]decane-2-propanamine dimaleate (Compound 1) in culture media. Cells were collected by trypsinization and the apoptotic DNA was isolated from these cells following the instructions of the DNA fragmentation analysis kit (Boehringer Mannheim Corp., Indianapolis, Ind.). The apoptotic DNA was evaluated using 1.5% agarose gel electrophoresis followed by staining with ethidium bromide. M denotes the lane containing molecular weight markers of DNA.

HUVEC cells = assay: Induction of apoptosis, DNA fragmentation analysis, HUVEC; type: cell-based, human; details: 16 hours treatment
Experimental: as §1

HUVEC = HUVEC cord formation assay (Matrigel); type: cell-based; details: Homo sapiens, 24 hour incubation, read-out: IC50 Concentration, Cord Formation
Experimental: Matrigel (60 μl of 10 mg/ml; Collaborative Lab # 35423) was placed in each well of an ice-cold 96-well plate. The plate is allowed to sit at room temperature for 15 minutes then incubated at 37° C. for 30 minutes to permit the matrigel to polymerize. In the mean time, HUVEC are prepared in EGM-2 (Clonetic# CC3162) at a concentration of 2×10^5 cells/ml. Test solutions of Compound I are prepared at 2× the desired concentration (5 concentration levels) in the same medium. The cells (500 μl) and 2× Compound 1 (500 μl) solution are mixed and 200 μl of this suspension are placed in duplicate on the polymerized matrigel. After a 24 hour incubation, triplicate pictures are taken for each concentration using a Bioquant Image Analysis system. Drug effect (IC50) is assessed compared to untreated controls by measuring the length of cords formed and number of junctions, and is reported in Table 8.

CCRF-CEM = assay: NCI in vitro SRB assay, Leukemia; type: cell-based; details: for GI50 / CC50: Homo sapiens
Experimental: (§2) An in vitro assay which tested the ability of N,N,-diethyl-8,8-dipropyl-2-azaspiro[4,5]decane-2-propanamine dimaleate (Compound 1) to inhibit the growth of known cancer cell lines was performed by the National Cancer Institute in accordance with standard procedures. See: Lin, Z. X., Hoult, J. R., and Raman, A. Sulphorhodamine B assay for measuring proliferation of a pigmented melanocyte cell line and its application to the evaluation of crude drugs used in the treatment of vitiligo. J Ethnopharmacol. 66: 141-150, 1999. Briefly, selected tumor cell lines were cultured in media containing five different concentrations of Compound 1. After 48 hours of continuous exposure, a sulforhodamine B (SRB) assay was used to estimate cell viability or growth via optical measurements.
(§3) From the measurements, the following values were determined: 1) the concentration of Compound 1 at which a tumor cell growth inhibition of 50% (relative to control) occurs (GI50), 2) the concentration of Compound 1 at which no growth occurs (total growth inhibition, TGI), and 3) the concentration of Compound 1 at which the […] (LC 50). […] FIG. 6 illustrates, graphically, tumor cell growth as a function of Compound 1 concentration of the scanned tumor cell lines.

RPMI-8226 = assay: NCI in vitro SRB assay, Leukemia; type: cell-based; details: for CC50 / GI50: Homo sapiens
Experimental: as §2, §3

A549/ATCC = assay: NCI in vitro SRB assay, Non-Small Cell Lung Cancer; type: cell-based; details: for CC50 / GI50: Homo sapiens
Experimental: as §2, §3

HOP-92 = assay: NCI in vitro SRB assay, Non-Small Cell Lung Cancer; type: cell-based; details: for CC50 / GI50: Homo sapiens
Experimental: as §2, §3

NCI-H322M = assay: NCI in vitro SRB assay, Non-Small Cell Lung Cancer; type: cell-based; details: for GI50 / CC50: Homo sapiens
Experimental: as §2, §3

[1] = read-out: Log10 GI50 (converted)
[2] = read-out: Log10 LC50 (converted)
[3] = RPMI-8226, Log10 conc -4.0 Moles/L
[4] = RPMI-8226, Log10 conc -5.0 Moles/L
[5] = RPMI-8226, Log10 conc -6.0 Moles/L
[6] = RPMI-8226, Log10 conc -7.0 Moles/L
[7] = RPMI-8226, Log10 conc -8.0 Moles/L
[8] = A549/ATCC, Log10 conc -4.0 Moles/L
[9] = A549/ATCC, Log10 conc -5.0 Moles/L
[10] = A549/ATCC, Log10 conc -6.0 Moles/L
[11] = A549/ATCC, Log10 conc -7.0 Moles/L
[12] = A549/ATCC, Log10 conc -8.0 Moles/L
[13] = HOP-92, Log10 conc -4.0 Moles/L
[14] = HOP-92, Log10 conc -5.0 Moles/L
[15] = HOP-92, Log10 conc -6.0 Moles/L
[16] = HOP-92, Log10 conc -7.0 Moles/L
[17] = HOP-92, Log10 conc -8.0 Moles/L

Structure (SMILES): CCCC1(CCC)CCC2(CCN(CCCN(CC)CC)C2)CC1.O=C(O)/C=C\C(=O)O.O=C(O)/C=C\C(=O)O [Compound 1, N,N,-diethyl-8,8-dipropyl-2-azaspiro[4,5]decane-2-propanamine dimaleate]
- DNA ladder formation (apoptosis) (T84 cells): formation of DNA laddering in a dose-dependent manner
- DNA ladder formation (apoptosis) (HUVEC cells): formation of DNA laddering in a dose-dependent manner
- IC50 (HUVEC): 2630 nM
- Log10 TGI (CCRF-CEM): >−4.00
- TGI (CCRF-CEM): >100000 nM
- GI50 (CCRF-CEM; read-out: GI50): 1090 nM
- CC50 (CCRF-CEM; read-out: LC50): > 100000 nM
- GI50 (CCRF-CEM; [1]): 1100 nM
- CC50 (CCRF-CEM; [2]): > 100000 nM
- Mean Optical Densities (CCRF-CEM; Log10 conc -4.0 Moles/L): 0.115
- Percent Growth (CCRF-CEM; Log10 conc -4.0 Moles/L): 6%
- Mean Optical Densities (CCRF-CEM; Log10 conc -5.0 Moles/L): 0.158
- Percent Growth (CCRF-CEM; Log10 conc -5.0 Moles/L): 13%
- Mean Optical Densities (CCRF-CEM; Log10 conc -6.0 Moles/L): 0.409
- Percent Growth (CCRF-CEM; Log10 conc -6.0 Moles/L): 51%
- Mean Optical Densities (CCRF-CEM; Log10 conc -7.0 Moles/L): 0.597
- Percent Growth (CCRF-CEM; Log10 conc -7.0 Moles/L): 81%
- Mean Optical Densities (CCRF-CEM; Log10 conc -8.0 Moles/L): 0.611
- Percent Growth (CCRF-CEM; Log10 conc -8.0 Moles/L): 83%
- CC50 (RPMI-8226; RPMI-8226, read-out: LC50): > 100000 nM
- CC50 (RPMI-8226; RPMI-8226, read-out: Log10 LC50 (converted)): > 100000 nM
- GI50 (RPMI-8226; RPMI-8226, read-out: GI50): 283 nM
- GI50 (RPMI-8226; RPMI-8226, read-out: Log10 GI50 (converted)): 282 nM
- Log10 TGI (RPMI-8226; RPMI-8226): −4.53
- TGI (RPMI-8226; RPMI-8226): 29800 nM
- Mean Optical Densities (RPMI-8226; [3]): 0.185
- Percent Growth (RPMI-8226; [3]): −3%
- Mean Optical Densities (RPMI-8226; [4]): 0.218
- Percent Growth (RPMI-8226; [4]): 3%
- Mean Optical Densities (RPMI-8226; [5]): 0.371
- Percent Growth (RPMI-8226; [5]): 21%
- Mean Optical Densities (RPMI-8226; [6]): 0.843
- Percent Growth (RPMI-8226; [6]): 74%
- Mean Optical Densities (RPMI-8226; [7]): 0.918
- Percent Growth (RPMI-8226; [7]): 83%
- Log10 TGI (A549/ATCC; A549/ATCC): −5.48
- TGI (A549/ATCC; A549/ATCC): 3330 nM
- Mean Optical Densities (A549/ATCC; [8]): 0.056
- Percent Growth (A549/ATCC; [8]): −78%
- Mean Optical Densities (A549/ATCC; [9]): 0.070
- Percent Growth (A549/ATCC; [9]): −73%
- Mean Optical Densities (A549/ATCC; [10]): 1.126
- Percent Growth (A549/ATCC; [10]): 80%
- Mean Optical Densities (A549/ATCC; [11]): 1.307
- Percent Growth (A549/ATCC; [11]): 96%
- Mean Optical Densities (A549/ATCC; [12]): 1.277
- Percent Growth (A549/ATCC; [12]): 94%
- CC50 (A549/ATCC; A549, read-out: LC50): 7080 nM
- CC50 (A549/ATCC; A549, read-out: Log10 LC50 (converted)): 7080 nM
- GI50 (A549/ATCC; A549/ATCC, read-out: GI50): 1570 nM
- GI50 (A549/ATCC; A549/ATCC, read-out: Log10 GI50 (converted)): 1580 nM
- Log10 TGI (HOP-92; HOP-92): −5.41
- TGI (HOP-92; HOP-92): 3920 nM
- Mean Optical Densities (HOP-92; [13]): 0.106
- Percent Growth (HOP-92; [13]): −87%
- Mean Optical Densities (HOP-92; [14]): 0.542
- Percent Growth (HOP-92; [14]): −33%
- Mean Optical Densities (HOP-92; [15]): 1.227
- Percent Growth (HOP-92; [15]): 49%
- Mean Optical Densities (HOP-92; [16]): 1.412
- Percent Growth (HOP-92; [16]): 71%
- Mean Optical Densities (HOP-92; [17]): 1.529
- Percent Growth (HOP-92; [17]): 85%
- CC50 (HOP-92; HOP-92, read-out: LC50): 20300 nM
- CC50 (HOP-92; HOP-92, read-out: Log10 LC50 (converted)): 20400 nM
- GI50 (HOP-92; HOP-92, read-out: GI50): 897 nM
- GI50 (HOP-92; HOP-92, read-out: Log10 GI50 (converted)): 891 nM
- Log10 TGI (NCI-H322M): −5.64
- TGI (NCI-H322M): 2290 nM
- GI50 (NCI-H322M; read-out: GI50): 890 nM
- CC50 (NCI-H322M; read-out: LC50): 5410 nM
- GI50 (NCI-H322M; [1]): 891 nM
- CC50 (NCI-H322M; [2]): 5370 nM
- Mean Optical Densities (NCI-H322M; Log10 conc -4.0 Moles/L): 0.115
- Percent Growth (NCI-H322M; Log10 conc -4.0 Moles/L): −84%
- Mean Optical Densities (NCI-H322M; Log10 conc -5.0 Moles/L): 0.100
- Percent Growth (NCI-H322M; Log10 conc -5.0 Moles/L): −86%
- Mean Optical Densities (NCI-H322M; Log10 conc -6.0 Moles/L): 0.855
- Percent Growth (NCI-H322M; Log10 conc -6.0 Moles/L): 48%
- Mean Optical Densities (NCI-H322M; Log10 conc -7.0 Moles/L): 0.979
- Percent Growth (NCI-H322M; Log10 conc -7.0 Moles/L): 86%
- Mean Optical Densities (NCI-H322M; Log10 conc -8.0 Moles/L): 0.991
- Percent Growth (NCI-H322M; Log10 conc -8.0 Moles/L): 89%
